Experimental findings from patent publication US20050261177A1, “Compound” (priority 2001, published 2005) are described below.

Structures are written as SMILES. Read-outs that look alike come from different tables or passages of the source. Numbered stars: 1 amine (or outer) side, 2 acyl side, 3 side chain; on linkers, the order of the positions; unused ones are H or OH. Bridge positions count the residues as written; N and C are the ends. Square brackets hold non-standard residues; d marks the D form. Peptide text beside a SMILES is read from it. * marks the point of attachment. hTyr(3R-OH,3'-OSO3H) = N[C@H](C(=O)O)[C@H](O)Cc1ccc(O)c(OS(=O)(=O)O)c1; X3 = O=C(c1ccc(-c2cn3nc(-c4ccc(OC5CCN(c6ccccc6)CC5)cc4)sc3n2)cc1)*; X2 = COCCCCCCN1CCN(c2ccc(-c3nn4cc(-c5ccc(C(=O)*)cc5)nc4s3)cc2)CC1; X4 = C[C@H]1CC[C@H](N2CCN(c3ccc(-c4ccc(C(=O)*)cc4)cc3)CC2)CC1; Orn(3R-OH,Nδ-CH(CH2OH)2) = N[C@H](C(=O)O)[C@H](O)CCNC(CO)CO; X1 = CCCCCOC1CCN(c2ccc(-c3nnc(-c4ccc(C(=O)*)cc4)s3)cc2)CC1; Orn(4R-OH) = O=C([C@H](C[C@@H](O)CN[*:3])N[*:1])[*:2]; Pro(3S-OH,4S-Me) = C[C@H]1CN[C@H](C(=O)O)[C@H]1O; Hyp = O=C(O)[C@@H]1C[C@@H](O)CN1 A value given as a limit tells only on which side of the number the result lay.

For orientation: MIC means the lowest concentration found to suppress growth. Low values mean inhibition by little substance, high ones a need for much substance.

This assay deals with Candida albicans FP-633. It counts as cell-based. The protocol:
In vitro antimicrobial activity of the object compound of Examples 41, 46, 53 and 56 disclosed later was determined by MICs in mouse serum as described below.
The MICS in mouse serum were determined by the microdilution method using ICR mouse serum buffered with 20 mM HEPES buffer (pH 7.3) as a test medium. Inoculum suspension of 10^6 cells/ml were prepared by a hemocytometric procedure and diluted to obtain an inoculum size of approximately 1.0×10^3 cells/ml. Microplates were incubated at 37° C. for 24 hours in 5% CO2. The MICS were defined as the lowest concentrations at which no visible growth was observed.

[1] abbreviates: Candida albicans FP-633, ICR mouse serum buffered with 20 mM HEPES (pH 7.3), 37° C., 24 hours, 5% CO2, lowest concentration with no visible growth.

In the case of `C[C@@H](O)[C@@H]1NC(=O)[C@@H](NC(=O)c2ccc(-c3cn4nc(-c5ccc(OC6CCN(c7ccccc7)CC6)cc5)sc4n3)cc2)C[C@@H](O)CNC(=O)[C@@H]2[C@@H](O)[C@@H](C)CN2C(=O)[C@H]([C@H](O)CCNC(CO)CO)NC(=O)[C@H]([C@H](O)Cc2ccc(O)c(OS(=O)(=O)O)c2)NC(=O)[C@@H]2C[C@@H](O)CN2C1=O` [Example 41] (X3-[Orn(4R-OH)]T[Hyp][hTyr(3R-OH,3'-OSO3H)][Orn(3R-OH,Nδ-CH(CH2OH)2)][Pro(3S-OH,4S-Me)]; lactam 1-C), the minimum inhibitory concentration (MIC) under setting [1] was <0.3 µg/mL.
Turning to `COCCCCCCN1CCN(c2ccc(-c3nn4cc(-c5ccc(C(=O)N[C@H]6C[C@@H](O)CNC(=O)[C@@H]7[C@@H](O)[C@@H](C)CN7C(=O)[C@H]([C@H](O)CCNC(CO)CO)NC(=O)[C@H]([C@H](O)Cc7ccc(O)c(OS(=O)(=O)O)c7)NC(=O)[C@@H]7C[C@@H](O)CN7C(=O)[C@H]([C@@H](C)O)NC6=O)cc5)nc4s3)cc2)CC1` [Example 46] (X2-[Orn(4R-OH)]T[Hyp][hTyr(3R-OH,3'-OSO3H)][Orn(3R-OH,Nδ-CH(CH2OH)2)][Pro(3S-OH,4S-Me)]; lactam 1-C), the minimal inhibitory concentration (MIC) (FP-633, 24 h, pH 7.3) was <0.3 µg/mL.
In the case of `C[C@@H](O)[C@@H]1NC(=O)[C@@H](NC(=O)c2ccc(-c3ccc(N4CCN([C@H]5CC[C@H](C)CC5)CC4)cc3)cc2)C[C@@H](O)CNC(=O)[C@@H]2[C@@H](O)[C@@H](C)CN2C(=O)[C@H]([C@H](O)CCNC(CO)CO)NC(=O)[C@H]([C@H](O)Cc2ccc(O)c(OS(=O)(=O)O)c2)NC(=O)[C@@H]2C[C@@H](O)CN2C1=O` [Example 53] (X4-[Orn(4R-OH)]T[Hyp][hTyr(3R-OH,3'-OSO3H)][Orn(3R-OH,Nδ-CH(CH2OH)2)][Pro(3S-OH,4S-Me)]; lactam 1-C), under setting [1], the MIC is <0.3 µg/mL.
Turning to `CCCCCOC1CCN(c2ccc(-c3nnc(-c4ccc(C(=O)N[C@H]5C[C@@H](O)CNC(=O)[C@@H]6[C@@H](O)[C@@H](C)CN6C(=O)[C@H]([C@H](O)CCNC(CO)CO)NC(=O)[C@H]([C@H](O)Cc6ccc(O)c(OS(=O)(=O)O)c6)NC(=O)[C@@H]6C[C@@H](O)CN6C(=O)[C@H]([C@@H](C)O)NC5=O)cc4)s3)cc2)CC1` [Example 56] (X1-[Orn(4R-OH)]T[Hyp][hTyr(3R-OH,3'-OSO3H)][Orn(3R-OH,Nδ-CH(CH2OH)2)][Pro(3S-OH,4S-Me)]; lactam 1-C), the MIC (FP-633, 24 h, pH 7.3) is <0.3 µg/mL.
